Measurements reported in patent US3980794A, “Method for promoting growth of poultry with 3-(5-nitro-2-imidazolyl)pyrazoles” (Eli Lilly and Company, priority 1975, dated 1976).
Where two headings read alike, the source gives them in different places.

Assays:
[1] = test system: Pasteurella multocida, bovine strain; test: Oral activity against Pasteurella multocida, bovine strain, in mice (Experiment 3); type: in vivo, White Swiss mice; conditions: 100 g. per ton of feed; LD50 of control minus LD50 of treated group (log10 dilutions)
Experimental: White Swiss female mice weighing 15-20 g. each were used in the test. Seven groups of ten mice each were treated at a level of 100 g. of test compound per ton of feed. The animals received the medication in the feed for 2 days prior to challenge and for 7 days post challenge. Similar groups of mice on a ration without the antimicrobial agent were used as controls. Both the treated mice and the control groups of mice were challenged with log10 dilutions ranging from 10^-^2 through 10^-^8 of a 16 to 20-hour culture of Pasteurella multocida, bovine strain, at 0.1 ml. per mouse, administered subcutaneously. […] By subtracting the LD50 of each of the treated groups from that of the control group of mice, there was obtained a figure called the protective index.
In the chart, column 1 lists the test compound, identified in the same manner as set forth in Experiment 1; and column 2 lists the protective index.

E. coli = test: Oral activity against E. coli infection in chickens (Experiment 6); type: in vivo
Experimental: The evaluation of the effectiveness of selected nitroimidazoles for their oral activity against E. coli infection in chickens was accomplished as follows.
Broiler type, five-week-old chickens were wing-banded and individually weighed. Replicates of 8 chickens, each replicate having the same average chicken weight, were formed. Three replicates were run for each treatment. Treatment was initiated via the feed 24 hours prior to challenge. The E. coli challenge strain was No. 2- 1- 8. The challenge inoculum consisted of 0.5 ml. of 10^-^1 dilution of a 15-18 hour tryptose broth culture administered into the right thoracic air sac of each chicken. Eight to ten days following challenge, all surviving chickens were weighed and examined for lesions. Any chicken that died during the experiment was also examined for lesions such as air sac lesions, pericarditis lesions, and perihepatitis lesions, and a culture made. The pre-treatment average weight per bird was 790 g. The test compounds were the same as before, identified as 1, 6, and 7.

Pasteurella multocida [2] = test: Efficacy against Pasteurella multocida infections in mice when administered by injection (Experiment 1); type: in vivo, Swiss mice; conditions: ip; for responders at 2.5 mg/kg: 2.5 mg./kg. i.p.; for responders at 5 mg/kg: 5.0 mg./kg. i.p.; for responders at 7.5 mg/kg: 7.5 mg./kg. i.p.
Experimental: The efficacy of the novel compounds against Pasteurella multocida infections in mice when administered by injection was studied.
Female Swiss mice weighing from 15 to about 20 g. were used. The test compound, 5.0 mg., was weighed out and dissolved in 0.5 ml. of dimethyl sulfoxide, and this solution was added to 9.5 ml. of sodium carboxymethylcellulose suspension. Groups of five mice each were injected intraperitoneally with 0.1 ml. each of the above-prepared test composition. This preparation gave a test rate of 2.5 mg. per kilo of body weight of mouse. The compounds were tested at 2.5, 5.0, or 7.5 mg. per kilo of body weight of mouse, and the test preparations for rates of 5.0 and 7.5 mg./kg. were prepared in a similar manner. Immediately after receiving the test compound, the mice were challenged using log10 dilutions of 10^-^4, 10^-^5, 10^-^6, and 10^-^7 of a 16 to 20-hour tryptose broth culture of Pasteurella multocida at 0.1 ml. per mouse subcutaneously. Similar groups of nontreated control mice were also challenged, the challenge being administered subcutaneously. The groups of mice were observed daily for mortality and the total mortality in treated groups compared with that which occurred in the nonmedicated control groups. Each test compound is identified by the number of the example describing its preparation.
In the chart, column 1 lists the test compound; column 2, the dosage of test compound in mg./kg. of mouse body weight; column 3, the dilution of the challenge organism; and column 4, the ratio of the number of mice surviving the test at each dosage and challenge dilution to the number of mice tested at each dosage and challenge dilution, called the survival ratio.

Pasteurella multocida [3] = test: Oral activity against Pasteurella multocida-caused infection in chickens (Experiment 5A); type: in vivo; conditions: 100 g./ton in feed
Experimental: A. Selected examples of the novel compounds were evaluated for their oral activity against Pasteurella multocida-caused infection in chickens. Four to five-week-old chickens were divided into groups of eight, and the compounds administered thereto in the feed. Two replicates were run for each compound. Twenty-four hours after the chickens began receiving the compound in their feed, the treated groups, as well as the nontreated control groups, were challenged intravenously with a broth culture of P. multocida. […] The chicks were observed during seven days following the challenge and the mortality in the treated groups was compared to that of the control group. The heart and liver were removed from each chicken which died during the test and cultured to determine the presence of P. multocida. At the termination of the test, all surviving chickens were sacrificed, the heart and liver removed from each chicken and cultured to determine the presence of P. multocida.

[4] = test system: Bacteroides fragilis sp. fragilis 1877; test: Susceptibility of anaerobic bacteria, agar dilution; type: cell-based; conditions: Bacteroides fragilis, 24 h, read-out: 24 Hr. Minimum Inhibitory Concentration
[5] = test system: Propionibacterium acnes 79; test: as above; type: cell-based; conditions: Cutibacterium acnes, 79, 24 h, read-out: 24 Hr. Minimum Inhibitory Concentration
[6] = test system: Fusobacterium necrophorum 13859; test: as above; type: cell-based; conditions: Fusobacterium necrophorum, 13859, 24 h, read-out: 24 Hr. Minimum Inhibitory Concentration
[7] = test system: Veillonella alcalescens 1; test: as above; type: cell-based; conditions: Veillonella parvula, 1, 24 h, read-out: 24 Hr. Minimum Inhibitory Concentration
P. multocida = test: Oral activity against P. multocida in turkeys (Experiment 5B); type: in vivo; conditions: 100 g./ton in feed
[8] = challenge dilution 10^-^4, read-out: Survival Ratio (converted)
[9] = challenge dilution 10^-^5, read-out: Survival Ratio (converted)
[10] = challenge dilution 10^-^6, read-out: Survival Ratio (converted)

## COC=Nc1c(C#N)c(-c2ncc([N+](=O)[O-])n2C)nn1C [Compound 6, Methyl N-[4-cyano-1-methyl-3-(1-methyl-5-nitro-2-imidazolyl)pyrazol-5-yl]formimidate]
[1]
  Protective Index: 4.3
E. coli; 100 g./ton in feed
  Avg. Wt./Chicken: 1098 g
  No. chickens with lesions/No. in group: 11/24
  Survival Ratio: 24/24
E. coli; 200 g./ton in feed
  Avg. Wt./Chicken: 1059 g
  No. chickens with lesions/No. in group: 1/24
  Survival Ratio: 24/24
E. coli; 300 g./ton in feed
  Avg. Wt./Chicken: 1055 g
  No. chickens with lesions/No. in group: 6/24
  Survival Ratio: 24/24
Pasteurella multocida [2]; [8]
  responders at 2.5 mg/kg: 90%
  responders at 5 mg/kg: 80%
Pasteurella multocida [2]; [9]
  responders at 2.5 mg/kg: 50%
  responders at 5 mg/kg: 90%
Pasteurella multocida [2]; [10]
  responders at 2.5 mg/kg: 90%
  responders at 5 mg/kg: 100%
Pasteurella multocida [2]; challenge dilution 10^-^7, read-out: Survival Ratio (converted)
  responders at 2.5 mg/kg: 100%
Pasteurella multocida [2]; challenge dilution 10^-^4, read-out: Survival Ratio
  responders at 7.5 mg/kg: 90%
Pasteurella multocida [2]; challenge dilution 10^-^5, read-out: Survival Ratio
  responders at 7.5 mg/kg: 90%
Pasteurella multocida [2]; challenge dilution 10^-^6, read-out: Survival Ratio
  responders at 7.5 mg/kg: 100%
Pasteurella multocida [3]; replicate 1
  Culture Isolation P. multocida: 0/ 8
  Survival Ratio: 8/ 8
Pasteurella multocida [3]; replicate 2
  Culture Isolation P. multocida: 0/ 8
  Survival Ratio: 8/ 8
Pasteurella multocida [3]; total
  Culture Isolation P. multocida: 0/16
  Survival Ratio: 16/16
[4]
  MIC: < 0.125 µg/mL
[5]
  MIC: < 0.125 µg/mL
[6]
  MIC: < 0.125 µg/mL
[7]
  MIC: < 0.125 µg/mL
P. multocida
  Culture Isolation P. multocida: 0/5
  Survival Ratio: 5/5
